Experimental data published in ChEMBL document CHEMBL1145437, “Synthesis and biological evaluation of N-acetyl-beta-aryl-1,2-didehydroethylamines as new HIV-1 RT inhibitors in vitro” (Bioorg Med Chem Lett, 2007).
Calls of active or inactive are those of the source. No cut-off for these calls is given here.

Key:
[1] = system: Human immunodeficiency virus 1; experiment: Inhibition of HIV1 reverse transcriptase at 200 ug/mL
[2] = Cytotoxicity in human C8166 cells; format: cell-based
[3] = system: Human immunodeficiency virus 1; experiment: Antiviral activity against HIV1 assessed as syncytium reduction; format: functional, organism-based
[4] = Therapeutic index, Ratio of CC50 for human C8166 cells to EC50 for HIV1; format: cell-based; conditions: read-out: TI
[5] = Inhibition of HIV1 reverse transcriptase; parameters: species or system Human immunodeficiency virus 1
[6] = system: Human immunodeficiency virus 1; experiment: Inhibition of HIV1 reverse transcriptase at 20 ug/mL

SMILES	CC50 [2] [µM]	inhibition [1] [%]	IC50 [5] [µM]	other results
CC(=O)N/C=C/c1ccc(Br)cc1	–	–	–	Activity [1]: inactive
Cc1cn([C@H]2C[C@H](N=[N+]=[N-])[C@@H](CO)O2)c(=O)[nH]c1=O [ZIDOVUDINE]	> 5090	–	–	EC50 [3]: 0.0108 µM; selectivity ratio [4]: > 471000
CC(=O)N/C=C/c1ccccc1F	341	36.2	–	EC50 [3]: 383 µM; selectivity ratio [4]: < 1
CC(=O)N/C=C/c1cccc(Br)c1	134	41.5	–	EC50 [3]: 89.3 µM; selectivity ratio [4]: 1.5
CC(=O)N/C=C/c1ccsc1	–	–	–	Activity [1]: inactive
O=[N+]([O-])/C=C/c1ccccc1O	18.8	98.2	540	–
COc1ccc(/C=C/[N+](=O)[O-])c(OC)c1	5.4	86.3	553	–
CC(=O)N/C=C/c1ccccc1Br	241	54.4	–	EC50 [3]: 134 µM; selectivity ratio [4]: 1.8
O=[N+]([O-])/C=C/c1ccco1	28.9	91.8	465	–
COc1cc(OC)c(OC)cc1/C=C/NC(C)=O	–	–	–	Activity [1]: inactive
CC(=O)N/C=C/c1ccc(O)cc1	–	–	–	Activity [1]: inactive
CC(=O)N(C)/C=C/c1ccccc1Br	> 787	85.3	339	EC50 [3]: 59.8 µM; selectivity ratio [4]: > 13.2
O=[N+]([O-])/C=C/c1ccsc1	25.5	86.2	709	–
O=[N+]([O-])/C=C/c1cccc(Cl)c1	4.6	49.8	> 1090	–
Cc1cc(C)c(/C=C/[N+](=O)[O-])cc1C	6.9	31.5	–	–
COc1ccccc1/C=C/[N+](=O)[O-]	5	99.7	225	–
CC(=O)N/C=C/c1cccc(Cl)c1	–	10.7	–	–
COc1ccccc1/C=C/NC(C)=O	–	–	–	Activity [1]: inactive
O=[N+]([O-])/C=C/c1ccc(F)cc1	–	22.9	–	–
COc1cc(OC)c(OC)cc1/C=C/[N+](=O)[O-]	4.7	49.1	> 837	–
O=[N+]([O-])/C=C/c1ccc2ccccc2c1	40.6	58.8	935	–
CC(=O)N(C)/C=C/c1ccccc1C	609	79.8	487	EC50 [3]: 116 µM; selectivity ratio [4]: 5.2
Cc1ccccc1/C=C/[N+](=O)[O-]	7.4	99.2	261	–
O=[N+]([O-])/C=C/c1ccc(Br)cc1	13.6	20.3	–	–
CC(=O)N/C=C/c1ccc2ccccc2c1	154	30.1	–	EC50 [3]: 49.7 µM; selectivity ratio [4]: 3.1
CC(=O)N(C)/C=C/c1ccccc1Cl	441	75.2	434	EC50 [3]: 95.9 µM; selectivity ratio [4]: 4.6
CC(=O)N/C=C/c1ccc(C)cc1	–	16.6	–	–
COc1ccc(/C=C/NC(C)=O)cc1	–	–	–	Activity [1]: inactive

SMILES	CC50 [2] [µM]	inhibition [1] [%]	IC50 [5] [µM]	other results
O=[N+]([O-])/C=C/c1ccccc1Cl	3	99.3	361	–
COc1ccc(/C=C/NC(C)=O)c(OC)c1	–	–	–	Activity [1]: inactive
CC(=O)N/C=C/c1cc(C)c(C)cc1C	–	25.4	–	–
CC(=O)N(C)/C=C/c1ccc(Br)cc1	–	–	–	Activity [1]: inactive
O=[N+]([O-])/C=C/c1ccc(Cl)cc1	–	19.8	–	–
O=C(O)P(=O)(O)O [FOSCARNET]	–	–	1.3	inhibition [6]: 96.5%
CC(=O)N(C)/C=C/c1ccccc1F	667	61.7	477	EC50 [3]: 119 µM; selectivity ratio [4]: 5.6
O=[N+]([O-])/C=C/c1ccccc1 [(2-NITROVINYL)BENZENE]	13.6	99.7	87.9	–
CC(=O)N/C=C/c1ccco1	–	–	–	Activity [1]: inactive
CC(=O)N/C=C/c1cccc2ccccc12	–	26.5	–	–
CC(=O)N/C=C/c1ccc(F)cc1	–	–	–	Activity [1]: inactive
Cc1ccc(/C=C/[N+](=O)[O-])cc1	15.2	36.9	–	–
CC(=O)N/C=C/c1ccc(Cl)cc1	–	–	–	Activity [1]: inactive
CC(=O)N/C=C/c1ccccc1	–	22.2	–	–
COc1ccc(/C=C/[N+](=O)[O-])cc1	6.3	93.5	561	–
O=[N+]([O-])/C=C/c1cccc2ccccc12	39.6	81.4	786	–
O=[N+]([O-])/C=C/c1ccc(O)cc1	15.8	96.4	553	–
O=[N+]([O-])/C=C/c1ccccc1F	2.8	95.4	365	–
CC(=O)N/C=C/c1ccccc1O	–	10.1	–	–
CC(=O)N/C=C/c1ccccc1C	385	40.1	–	EC50 [3]: 379 µM; selectivity ratio [4]: 1
O=[N+]([O-])/C=C/c1ccc(C(F)(F)F)cc1	–	29.4	–	–
CC(=O)N/C=C\c1ccsc1	–	12	–	–
CC(=O)N/C=C/c1ccc(C(F)(F)F)cc1	–	–	–	Activity [1]: inactive
O=[N+]([O-])/C=C/c1cccc(Br)c1	–	13.4	–	–
CC(=O)N/C=C/c1ccccc1Cl	297	34	–	EC50 [3]: 124 µM; selectivity ratio [4]: 2.4
O=[N+]([O-])/C=C/c1ccccc1Br	0.57	95.7	202	–
CC(=O)N(C)/C=C/c1cccc(Br)c1	409	45.4	838	EC50 [3]: 128 µM; selectivity ratio [4]: 3.2
